Assay results published in patent publication US20210137961A1, “Compositions and Methods for Treating Dry Eye Diseases” (priority 2017, published 2021).
Values after ≈ are worked out from the molar mass of the structure shown. Read-outs that look alike come from different tables or passages of the source.

Columns and labels:
Chlamydophila pneumoniae = assay: MIC against Chlamydophila pneumoniae; type: cell-based
[1] = tested on: phagocytized L. monocytogenes; type: cell-based
Haemophilus influenzae = assay: MIC against Haemophilus influenzae; type: cell-based
S. epidermidis = assay: MIC against S. epidermidis (30 species); type: cell-based
H. influenzae = assay: MIC against H. influenzae (30 species); type: cell-based
[2] = tested on: Viridans group streptococci; assay: MIC against Viridans group streptococci; type: cell-based; settings: N 51
MSSA = assay: MIC against MSSA (31 species); type: cell-based
[3] = tested on: Haemophilus parainfluenzae; assay: MIC against Haemophilus parainfluenzae; type: cell-based; settings: N 11
Staphylococcus aureus = assay: MIC against Staphylococcus aureus; type: cell-based; settings: N 201
Chlamydia trachomatis = assay: MIC against Chlamydia trachomatis; type: cell-based; settings: N 10
phospholipase = assay: Phospholipase inhibition in other cell lines; type: cell-based
[4] = MIC in the presence of serum; type: cell-based; settings: 10% serum
[5] = tested on: L. monocytogenes and S. aureus; assay: Antibacterial activity at acidic pH compared with Azi; type: cell-based; settings: including L. monocytogenes and S. aureus
Streptococcus mitis = assay: MIC against Streptococcus mitis; type: cell-based; settings: N 73
[6] = tested on: Streptococci (Groups C, F, G); assay: MIC against Streptococci (Groups C, F, G); type: cell-based; settings: N 185
[7] = speed of uptake and ultimate tissue concentration
Legionella pneumophila = type: cell-based
Ureaplasma urealyticum = assay: MIC against Ureaplasma urealyticum; type: cell-based; settings: N 10
Peptostreptococcus spp. = assay: MIC against Peptostreptococcus spp.; type: cell-based; settings: N 10
Listeria monocytogenes = assay: MIC against Listeria monocytogenes; type: cell-based; settings: N 10
P. acnes = assay: MIC against P. acnes; type: cell-based
[8] = Protein binding in plasma; type: in vitro ADME
S. pneumoniae = assay: MIC against S. pneumoniae (30 species); type: cell-based
Streptococcus agalactiae = assay: MIC against Streptococcus agalactiae; type: cell-based; settings: N 535
MMP9 = MMP9 activity in PMA-stimulated U937 cells (gelatin zymography); type: cell-based, human; settings: PMA stimulation
Method: EXAMPLE. […] Cells. The human monocytic cell line U937 was obtained from the American Type Culture Collection (ATCC, Rockville, Md.). PBMCs from COPD patients were obtained from Brompton hospital and separated by AccuSPIN (Sigma-Aldrich). […] U937 cells were differentiated into adherent macrophage-like morphology by exposure to PMA (50 ng/ml) for 48 h in complete growth medium. Cell viability was assessed microscopically by trypan blue staining. Cell toxicity was determined by MTT assay as needed. This study was approved by the ethics committee of the Royal Brompton Hospitals, and all subjects gave written informed consent. Zymography. MMP9 enzyme activity was measured by gelatin zymography. […] After electrophoresis, gels were incubated and rinsed with Novex® zymogram renaturing buffer (Invitrogen) for 30 min at room temperature. The gels were then rinsed in Novex® zymogram developing buffer (Invitrogen) for 30 min at room temperature prior to overnight incubation in the developing buffer at 37° C. After incubation, the gels were stained using a Colloidal Blue Staining Kit (Invitrogen) to visualize the zymogen bands. Statistical analysis. The results were expressed as the mean±SEM. Comparisons of data in two groups were performed using the Student's t test or the Wilcoxon signed rank test. Multiple comparisons were made by one-way ANOVA with post hoc test (Dunnett's) as appropriate. The difference was considered significant at p<0.05.

Corynebacterium spp. = assay: MIC against Corynebacterium spp.; type: cell-based; settings: N 10

## CC[C@H]1OC(=O)[C@@](C)(F)C(=O)[C@H](C)[C@@H](O[C@@H]2O[C@H](C)C[C@H](N(C)C)[C@H]2O)[C@](C)(OC)C[C@@H](C)C(=O)[C@H](C)[C@H]2N(CCCCn3cc(-c4cccc(N)c4)nn3)C(=O)O[C@]12C [Solithromycin, solithromycin]
Chlamydophila pneumoniae; Chlamydophila pneumoniae (10 strains)
  MIC90: 0.25 µg/mL (≈ 0.296 µM)
Chlamydophila pneumoniae; Chlamydophila pneumoniae, N 10
  MIC50: 0.25 µg/mL (≈ 0.296 µM)
  MIC90: 0.25 µg/mL (≈ 0.296 µM)
  MIC Range: 0.25 to 1 µg/mL
[1]
  activity against phagocytized bacteria, fold greater: 50-100 fold
[1]; phagocytized L. monocytogenes
  potency relative to azithromycin: 50 fold
Haemophilus influenzae; Haemophilus influenzae (100 strains)
  MIC90: 2 µg/mL (≈ 2.37 µM)
Haemophilus influenzae; Haemophilus influenzae, N 100
  MIC50: 1 µg/mL (≈ 1.18 µM)
  MIC90: 2 µg/mL (≈ 2.37 µM)
  MIC Range: 0.12 to 4 µg/mL
S. epidermidis
  I = intermediate susceptibility: 3%
  MIC50: 0.015 µg/mL (≈ 0.0178 µM)
  MIC90: 32 µg/mL (≈ 37.9 µM)
  NS = not susceptible: 17%
  S = susceptible: 80%
H. influenzae
  I = intermediate susceptibility: 0%
  MIC50: 2 µg/mL (≈ 2.37 µM)
  MIC90: 2 µg/mL (≈ 2.37 µM)
  MIC Range: 1 to 4 µg/mL
  NS = not susceptible: 0%
  S = susceptible: 100%
[2]
  MIC50: ≤0.008 µg/mL
  MIC90: 0.06 µg/mL (≈ 0.071 µM)
  MIC Range: ≤0.008-0.12 ^ μg/mL
MSSA
  I = intermediate susceptibility: 0%
  MIC50: 0.015 µg/mL (≈ 0.0178 µM)
  MIC90: 0.03 µg/mL (≈ 0.0355 µM)
  MIC Range: 0.004 to 64 µg/mL
  NS = not susceptible: 6%
  S = susceptible: 94%
[3]
  MIC50: 2 µg/mL (≈ 2.37 µM)
  MIC90: 2 µg/mL (≈ 2.37 µM)
  MIC Range: 1 to 2 µg/mL
Staphylococcus aureus
  MIC50: 0.12 µg/mL (≈ 0.142 µM)
  MIC90: >16 µg/mL
Chlamydia trachomatis
  MIC50: 0.25 µg/mL (≈ 0.296 µM)
  MIC90: 0.25 µg/mL (≈ 0.296 µM)
  MIC Range: 0.125 to 0.5 µg/mL
phospholipase; after dosing is stopped
  reversibility of phospholipase inhibition: rapidly reversible
phospholipase; other cell lines, read-out: IC50 for phospholipase inhibition
  IC50: 100 µM
[4]
  change in MIC in the presence of serum: 2 fold
[5]
  activity at acidic pH relative to Azi: 100-200 fold
Streptococcus mitis
  MIC50: ≤0.03 µg/mL
  MIC90: 0.06 µg/mL (≈ 0.071 µM)
  MIC Range: ≤0.03-0.25^ μg/mL
[6]
  MIC50: ≤0.03 µg/mL
  MIC90: ≤0.03 µg/mL
  MIC Range: ≤0.03-0.25^ μg/mL
[7]
  tissue distribution relative to Azi: 10 fold
Legionella pneumophila; Legionella pneumophila (30 strains)
  MIC90: ≤0.015 µg/mL
Legionella pneumophila; Legionella pneumophila, N 30
  MIC50: ≤0.015 µg/mL
  MIC90: ≤0.015 µg/mL
  MIC Range: ≤0.015 µg/mL
Ureaplasma urealyticum
  MIC50: 0.008 µg/mL (≈ 0.00947 µM)
  MIC90: 0.031 µg/mL (≈ 0.0367 µM)
  MIC Range: 0.004 to 0.063 µg/mL
Peptostreptococcus spp.
  MIC50: 0.06 µg/mL (≈ 0.071 µM)
  MIC90: 0.25 µg/mL (≈ 0.296 µM)
  MIC Range: ≤0.03-0.25^ μg/mL
Listeria monocytogenes
  MIC50: 0.03 µg/mL (≈ 0.0355 µM)
  MIC90: 0.03 µg/mL (≈ 0.0355 µM)
  MIC Range: 0.03 µg/mL (≈ 0.0355 µM)
P. acnes; P. acnes
  MIC 50%: 0.015 µg/mL (≈ 0.0178 µM)
P. acnes; P. acnes (51 species)
  MIC 90%: 0.06 µg/mL (≈ 0.071 µM)
  MIC Range: ≤0.002 to 0.25 µg/mL
[8]
  protein binding in plasma: 86%
S. pneumoniae
  I = intermediate susceptibility: 0%
  MIC50: 0.002 µg/mL (≈ 0.00237 µM)
  MIC90: 0.12 µg/mL (≈ 0.142 µM)
  MIC Range: ≤0.001-0.25 ^ μg/ml
  NS = not susceptible: 0%
  S = susceptible: 100%
Streptococcus agalactiae
  MIC50: ≤0.03 µg/mL
  MIC90: ≤0.03 µg/mL
  MIC Range: ≤0.03-0.5 ^ μg/mL
MMP9
  IC50: 14.9 ± 3.1 µM
Corynebacterium spp.
  MIC50: 0.015 µg/mL (≈ 0.0178 µM)
  MIC90: 0.5 µg/mL (≈ 0.592 µM)
  MIC Range: ≤0.008-16 ^ μg/mL
